Results: ChEMBL document CHEMBL1145546, “Interactive effects of polymethoxy flavones from Citrus on cell growth inhibition in human neuroblastoma SH-SY5Y cells” (Bioorg Med Chem, 2008)
Activity calls are given as the source filed them. No cut-off for these calls is given here.

What was measured:
SH-SY5Y [1] = test: Growth inhibition of human SHSY5Y cells assessed as viable cells after 48 hrs by Trypan blue dye exclusion test; assay type: functional, cell-based
SH-SY5Y [2] = test: Elevation of phosphorylated JNk level in hydrogen peroxide-treated human SHSY5Y cells at 30 uM after 3 hrs by Western blot analysis; assay type: functional, cell-based
SH-SY5Y [3] = test: Elevation of phosphorylated p38 level in hydrogen peroxide-treated human SHSY5Y cells at 30 uM after 3 hrs by Western blot analysis; assay type: functional, cell-based
SH-SY5Y [4] = test: Reduction of hydrogen peroxide-induced apoptotic cell death in human SHSY5Y cells after 12 hrs; assay type: functional; design: scale not given: the % may be the effect or the level left
SH-SY5Y [5] = test: Elevation of phosphorylated ERK level in hydrogen peroxide-treated human SHSY5Y cells at 30 uM after 3 hrs by Western blot analysis; assay type: functional, cell-based
SH-SY5Y [6] = test: Reduction of hydrogen peroxide-induced apoptotic cell death in human SHSY5Y cells assessed as DNA ladder formation after 12 hrs; assay type: functional, cell-based

Row | SMILES | IC50 (SH-SY5Y [1]) | Activity (SH-SY5Y [2]) | Activity (SH-SY5Y [3]) | Activity (SH-SY5Y [4]) | Activity (SH-SY5Y [5]) | Activity (SH-SY5Y [6])
1 | COc1ccc(-c2cc(=O)c3c(O)c(OC)c(OC)c(OC)c3o2)cc1OC [5-DEMETHYLNOBILETIN] | 32.5 µM | – | – | – | – | –
2 | COc1ccc(-c2cc(=O)c3c(OC)c(OC)c(OC)c(OC)c3o2)cc1OC [NOBILETIN] | – | Active | Active | 30% | Active | Active
3 | COc1ccc(-c2cc(=O)c3c(OC)c(OC)c(OC)c(OC)c3o2)cc1 [TANGERETIN] | 41.2 µM | – | – | – | – | –
